Data as given in the supplement of paper PMC10307832.

compound: C1CC(C2=C(C1)C3=C(N2)C=CC(=C3)Cl)C(=O)N [Selisistat] + Nc1nc2[nH]cc(CCc3ccc(C(=O)N[C@@H](CCC(=O)O)C(=O)O)cc3)c2c(=O)[nH]1 [Pemetrexed] (partner 0.2 µM); test: relative viability (nuclei count vs DMSO), 5 days (fraction); higher = more cells survive; conditions: first compound 40 µM
Procedure, shortened: (§1)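 Dosing by pin tool came one day after lung cancer cell lines were seeded in 1536-well plates, using either one drug or a fixed anchor-drug dose plus five library-drug doses (not always all listed) in √10 steps. After 5 days, nuclei were counted on 4× images. Relative viability is treated-well nuclei count divided by vehicle-well nuclei count, and values are medians of duplicate plates.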

For NCI-H1437, the relative viability was 0.299.

compound: c1ccc2c(CCNc3ccc(Nc4ccncc4)cc3)c[nH]c2c1 [Serdemetan] + CC(C)C[C@H](NC(=O)[C@H](Cc1ccccc1)NC(=O)c1cnccn1)B(O)O [Bortezomib] (partner 0.002 µM); test: as above; conditions: first compound 0.04 µM
Procedure, shortened: as §1

First: H3255
Second: COR-L23
The relative viability of the first is lower: 0.827 for the first, 0.918 for the second.

Compared with COR-L 105, LOU-NH91 is lower in relative viability: 0.775 for the first, 0.536 for the second.

Going from NCI-H2405 to HOP-62, the relative viability rises from 0.976 to 1.09.

First: LU99A
Second: BEN
The relative viability of the first is higher: 1.19 for the first, 0.785 for the second.

Going from HARA to HCC-78, the relative viability falls from 1.09 to 0.471.

First: NCI-H322M
Second: LCLC-97TM1
The relative viability of the first is higher: 1.32 for the first, 0.546 for the second.

Going from NCI-H2009 to A-427, the relative viability rises from 0.95 to 0.954.

Compared with NCI-H441, NCI-H661 is higher in relative viability: 0.459 for the first, 0.78 for the second.

Compared with NCI-H1734, NCI-H460 is higher in relative viability: 0.908 for the first, 1.05 for the second.

First: NCI-H2347
Second: SK-LU-1
The relative viability of the first is lower: 1.05 for the first, 1.15 for the second.

First: 201T
Second: NCI-H1915
The relative viability of the first is higher: 1.08 for the first, 0.957 for the second.

Going from HCC-827 to LXF-289, the relative viability falls from 1.05 to 0.954.

First: NCI-H23
Second: NCI-H647
The relative viability of the first is higher: 1.1 for the first, 0.95 for the second.

Going from NCI-H1651 to EPLC-272H, the relative viability rises from 0.805 to 0.967.

First: NCI-H2228
Second: NCI-H1355
The relative viability of the first is higher: 1.34 for the first, 1.23 for the second.

First: NCI-H3122
Second: NCI-H1437
The relative viability of the first is higher: 1.03 for the first, 0.545 for the second.

same assay, conditions: first compound 0.1265 µM

Compared with H3255, COR-L23 is higher in relative viability: 0.68 for the first, 0.863 for the second.

Compared with COR-L 105, LOU-NH91 is lower in relative viability: 0.764 for the first, 0.485 for the second.

Going from ChaGo-K-1 to NCI-H2405, the relative viability falls from 1.14 to 0.915.

Going from HOP-62 to LU99A, the relative viability rises from 0.928 to 1.08.

Going from BEN to HARA, the relative viability rises from 0.924 to 1.1.

Compared with HCC-78, NCI-H322M is higher in relative viability: 0.524 for the first, 1.26 for the second.

First: LCLC-97TM1
Second: NCI-H2009
The relative viability of the first is lower: 0.517 for the first, 0.986 for the second.

Compared with A-427, NCI-H441 is lower in relative viability: 1.03 for the first, 0.784 for the second.

First: NCI-H661
Second: NCI-H460
The relative viability of the first is lower: 0.909 for the first, 1.1 for the second.

Going from NCI-H2347 to SK-LU-1, the relative viability rises from 0.752 to 0.921.

First: 201T
Second: NCI-H1915
The relative viability of the first is higher: 1.14 for the first, 0.974 for the second.

Going from HCC-827 to LXF-289, the relative viability rises from 0.959 to 1.01.

First: NCI-H23
Second: NCI-H647
The relative viability of the first is higher: 1.07 for the first, 0.914 for the second.

Compared with CAL-12T, NCI-H1651 is lower in relative viability: 1.11 for the first, 0.938 for the second.

Compared with EPLC-272H, NCI-H2228 is higher in relative viability: 0.931 for the first, 1.02 for the second.

Compared with NCI-H1355, NCI-H3122 is lower in relative viability: 1.19 for the first, 0.955 for the second.

Work on NCI-H1437 yielded a relative viability of 0.497.

same assay, conditions: first compound 0.4 µM

Going from H3255 to COR-L23, the relative viability rises from 0.886 to 0.996.

Compared with COR-L 105, LOU-NH91 is lower in relative viability: 0.563 for the first, 0.412 for the second.

First: ChaGo-K-1
Second: NCI-H2405
The relative viability of the first is lower: 0.697 for the first, 0.905 for the second.

Going from HOP-62 to LU99A, the relative viability rises from 0.476 to 1.12.

Compared with BEN, HARA is higher in relative viability: 0.766 for the first, 1.15 for the second.

Going from HCC-78 to NCI-H322M, the relative viability rises from 0.476 to 1.06.

Going from LCLC-97TM1 to NCI-H2009, the relative viability rises from 0.809 to 0.929.

Compared with A-427, NCI-H441 is lower in relative viability: 0.959 for the first, 0.906 for the second.

Going from NCI-H661 to NCI-H1734, the relative viability falls from 0.766 to 0.677.

First: NCI-H460
Second: NCI-H2347
The relative viability of the first is lower: 1.19 for the first, 1.2 for the second.

Compared with SK-LU-1, 201T is lower in relative viability: 1.24 for the first, 1.1 for the second.

Going from NCI-H1915 to LXF-289, the relative viability falls from 1.02 to 0.944.

Going from NCI-H23 to NCI-H647, the relative viability falls from 1.05 to 0.95.

First: NCI-H1651
Second: EPLC-272H
The relative viability of the first is higher: 0.904 for the first, 0.899 for the second.

Going from NCI-H2228 to NCI-H1355, the relative viability rises from 0.974 to 1.12.

Compared with NCI-H3122, NCI-H1437 is lower in relative viability: 1.06 for the first, 0.471 for the second.

same assay, conditions: first compound 1.265 µM

Compared with H3255, COR-L23 is lower in relative viability: 0.746 for the first, 0.669 for the second.

First: COR-L 105
Second: LOU-NH91
The relative viability of the first is higher: 0.7 for the first, 0.409 for the second.

Compared with ChaGo-K-1, NCI-H2405 is lower in relative viability: 0.775 for the first, 0.738 for the second.

Going from HOP-62 to LU99A, the relative viability falls from 0.47 to 0.4.

First: BEN
Second: HCC-78
The relative viability of the first is lower: 0.48 for the first, 0.52 for the second.

Going from NCI-H322M to NCI-H2009, the relative viability falls from 1.2 to 0.787.

Going from A-427 to NCI-H441, the relative viability falls from 0.662 to 0.569.

Going from NCI-H661 to NCI-H1734, the relative viability falls from 0.84 to 0.158.

First: NCI-H460
Second: NCI-H2347
The relative viability of the first is lower: 0.561 for the first, 1.01 for the second.

Compared with SK-LU-1, 201T is lower in relative viability: 1.1 for the first, 1.05 for the second.

First: NCI-H1915
Second: HCC-827
The relative viability of the first is lower: 0.723 for the first, 0.954 for the second.

Compared with LXF-289, NCI-H23 is lower in relative viability: 0.951 for the first, 0.81 for the second.

First: NCI-H647
Second: CAL-12T
The relative viability of the first is lower: 0.559 for the first, 0.931 for the second.

Going from NCI-H1651 to EPLC-272H, the relative viability rises from 0.501 to 0.723.

First: NCI-H2228
Second: NCI-H1355
The relative viability of the first is lower: 0.404 for the first, 1.17 for the second.

NCI-H1437 showed a relative viability of 0.46.

same assay, conditions: first compound 4 µM

Compared with H3255, COR-L23 is higher in relative viability: 0.7 for the first, 0.978 for the second.

Going from COR-L 105 to LOU-NH91, the relative viability falls from 0.745 to 0.433.

First: ChaGo-K-1
Second: NCI-H2405
The relative viability of the first is lower: 0.849 for the first, 0.949 for the second.

Compared with HOP-62, LU99A is lower in relative viability: 0.871 for the first, 0.255 for the second.

First: BEN
Second: HARA
The relative viability of the first is lower: 0.763 for the first, 1.08 for the second.

Going from HCC-78 to NCI-H322M, the relative viability rises from 0.372 to 1.36.

Compared with LCLC-97TM1, NCI-H2009 is higher in relative viability: 0.307 for the first, 0.797 for the second.

Going from A-427 to NCI-H441, the relative viability rises from 0.598 to 0.643.

Going from NCI-H661 to NCI-H1734, the relative viability falls from 0.74 to 0.18.

Going from NCI-H460 to NCI-H2347, the relative viability rises from 0.1 to 0.744.

Going from SK-LU-1 to 201T, the relative viability rises from 0.988 to 1.06.

Going from NCI-H1915 to HCC-827, the relative viability rises from 0.86 to 1.01.

First: LXF-289
Second: NCI-H23
The relative viability of the first is lower: 0.894 for the first, 1.09 for the second.

Going from NCI-H647 to CAL-12T, the relative viability rises from 0.47 to 1.04.

Going from NCI-H1651 to EPLC-272H, the relative viability rises from 0.356 to 0.634.

Going from NCI-H2228 to NCI-H1355, the relative viability rises from 0.301 to 1.1.

Compared with NCI-H3122, NCI-H1437 is lower in relative viability: 1.08 for the first, 0.547 for the second.

compound: c1ccc2c(CCNc3ccc(Nc4ccncc4)cc3)c[nH]c2c1 [Serdemetan] + Cc1nc(Nc2ncc(C(=O)Nc3c(C)cccc3Cl)s2)cc(N2CCN(CCO)CC2)n1 [Dasatinib] (partner 0.075 µM); test: as above; conditions: first compound 0.04 µM
Procedure, shortened: as §1

H3255 gave a relative viability of 0.422.
